Molecules are shown by their SMILES. Counter-ions that a name gives are not always drawn.

T1 sequence (O14842 whole entry): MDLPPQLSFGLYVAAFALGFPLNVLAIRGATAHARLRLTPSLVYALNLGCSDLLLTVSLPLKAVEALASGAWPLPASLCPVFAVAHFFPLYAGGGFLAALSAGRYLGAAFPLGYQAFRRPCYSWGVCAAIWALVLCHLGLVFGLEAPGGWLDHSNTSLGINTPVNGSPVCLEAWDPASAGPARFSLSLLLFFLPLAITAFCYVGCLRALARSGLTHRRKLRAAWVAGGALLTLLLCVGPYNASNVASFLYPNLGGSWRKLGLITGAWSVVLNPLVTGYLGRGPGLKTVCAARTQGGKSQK

One test concerns the target T1, human-derived GPR40 (Homo sapiens, UniProt O14842).
T1 construct: expressed in transfected cells
In words: Receptor function modulating action (agonist action) on human-derived GPR40: variation in intracellular calcium concentration in CHO cells (FLIPR or Cell Lux). Type of test: cell-based. To be noted: each compound at 1 μM; relative to activity of 10 μM γ-linolenic acid = 100%; CHO cell line stably expressing human-derived GPR40; FLIPR for Examples 2, 6, 8, 10, 11, 13, Cell Lux for Examples 19-34. Here is the method: A CHO cell line stably expressing human-derived GPR40 was used for determining the agonist activity. […] One day before the assay, the cells cultured to near confluence were rinsed with PBS (Invitrogen), detached using 0.5 mM EDTA (Wako Pure Chemical Industries, Ltd.) and recovered by centrifugation. The obtained cells were counted and diluted to 3×10^5 cells per 1 mL medium. The cells were dispensed to a 96-well black clear bottom plate (Coster) by 100 μL per well and cultured overnight in a CO2 incubator. To the CHO cells prepared in this manner were added various test compounds, and variation in the intracellular calcium concentration was measured using FLIPR (Molecular Device) or Cell Lux (PerkinElmer). For measurement of variation in the intracellular calcium concentration using FLIPR or Cell Lux, the following pretreatment was performed. […] Then, a fluorescence dye solution was dispensed by 100 μL per well, and the cells were cultured in a CO2 incubator for 1 hr to allow intake of the fluorescence dye. During this time, the test compound was diluted to a given concentration with the assay buffer, and dispensed to a polypropylene 96-well plate (sample plate) by 100 μL. The cell plate and the sample plate were simultaneously set in the FLIPR or Cell Lux. After the foregoing pretreatment, variation in the intracellular calcium concentration after addition of 50 μL of various test compounds was measured using FLIPR or Cell Lux.
As for `Cc1cc(OC2CCS(=O)(=O)CC2)cc(C)c1-c1cccc(COc2ccc3c(c2)OC[C@H]3CC(=O)O)c1` [Example 2, [(3S)-6-({4′-[(1,1-dioxidotetrahydro-2H-thiopyran-4-yl)oxy]-2′,6′-dimethylbiphenyl-3-yl}methoxy)-2,3-dihydro-1-benzofuran-3-yl]acetic acid], the activation at 1 µM came to 107%.

`Cc1cc(OCCCS(C)(=O)=O)c(Cl)c(C)c1-c1cccc(COc2ccc3c(c2)OC[C@H]3CC(=O)O)c1` [Example 22, [(3S)-6-({3′-chloro-2′,6′-dimethyl-4′-[3-(methylsulfonyl)propoxy]biphenyl-3-yl}methoxy)-2,3-dihydro-1-benzofuran-3-yl]acetic acid]: the activation at 1 µM stood at 121%. With `CCc1c(Cl)c(OCCCS(C)(=O)=O)c(Cl)c(CC)c1-c1cccc(COc2ccc3c(c2)OC[C@H]3CC(=O)O)c1` [Example 28, [(3S)-6-({3′,5′-dichloro-2′,6′-diethyl-4′-[3-(methylsulfonyl)propoxy]biphenyl-3-yl}methoxy)-2,3-dihydro-1-benzofuran-3-yl]acetic acid], the activation at 1 µM was found to be 92%.

In the case of `Cc1cc(OCCCS(C)(=O)=O)c(F)c(C)c1-c1cccc(COc2ccc3c(c2)OC[C@H]3CC(=O)O)c1` [Example 13, [(3S)-6-({3′-fluoro-2′,6′-dimethyl-4′-[3-(methylsulfonyl)propoxy]biphenyl-3-yl}methoxy)-2,3-dihydro-1-benzofuran-3-yl]acetic acid], the activation at 1 µM amounted to 125%. With `Cc1cc(OCCCS(C)(=O)=O)cc(CO)c1-c1cccc(COc2ccc3c(c2)OC[C@H]3CC(=O)O)c1` [Example 19, [(3S)-6-({2′-(hydroxymethyl)-6′-methyl-4′-[3-(methylsulfonyl)propoxy]biphenyl-3-yl}methoxy)-2,3-dihydro-1-benzofuran-3-yl]acetic acid], the activation at 1 µM came out at 118%.

With `Cc1c(C)c(-c2cccc(COc3ccc4c(c3)OC[C@H]4CC(=O)O)c2)c(C)c(C)c1OCCCS(C)(=O)=O` [Example 8, [(3S)-6-({2′,3′,5′,6′-tetrameramethyl-4′-[3-(methylsulfonyl)propoxy]biphenyl-3-yl}methoxy)-2,3-dihydro-1-benzofuran-3-yl]acetic acid], the activation at 1 µM was 112%. On to `Cc1c(Cl)c(OCCCS(C)(=O)=O)c(Cl)c(C)c1-c1cccc(COc2ccc3c(c2)OC[C@H]3CC(=O)O)c1` [Example 24, [(3S)-6-({3′,5′-dichloro-2′,6′-dimethyl-4′-[3-(methylsulfonyl)propoxy]biphenyl-3-yl}methoxy)-2,3-dihydro-1-benzofuran-3-yl]acetic acid], for which the activation at 1 µM came out at 96%.

In the case of `Cc1cc(OCCCS(C)(=O)=O)cc(C)c1-c1cc(COc2ccc3c(c2)OC[C@H]3CC(=O)O)c(F)cc1OCc1ccccc1` [Example 34, [(3S)-6-({6-(benzyloxy)-4-fluoro-2′,6′-dimethyl-4′-[3-(methylsulfonyl)propoxy]biphenyl-3-yl}methoxy)-2,3-dihydro-1-benzofuran-3-yl]acetic acid], the activation at 1 µM is 119%. Consider `CCS(=O)(=O)CCOc1cc(C)c(-c2cccc(COc3ccc4c(c3)OC[C@H]4CC(=O)O)c2)c(C)c1` [Example 11, [(3S)-6-({4′-[2-(ethylsulfonyl)ethoxy]-2′,6′-dimethylbiphenyl-3-yl}methoxy)-2,3-dihydro-1-benzofuran-3-yl]acetic acid], for which the activation at 1 µM amounted to 120%. Consider `Cc1cc(OCC2(O)CCS(=O)(=O)CC2)cc(C)c1-c1cccc(COc2ccc3c(c2)OC[C@H]3CC(=O)O)c1` [Example 6, [(3S)-6-({4′-[(4-hydroxy-1,1-dioxidotetrahydro-2H-thiopyran-4-yl)methoxy]-2′,6′-dimethylbiphenyl-3-yl}methoxy)-2,3-dihydro-1-benzofuran-3-yl]acetic acid], for which the activation at 1 µM came to 102%. In the case of `Cc1cc(OCCCS(C)(=O)=O)cc(C)c1-c1cccc(COc2ccc3c(c2)OC[C@H]3CC(=O)O)c1` [Example 10, [(3S)-6-({2′,6′-dimethyl-4′-[3-(methylsulfonyl)propoxy]biphenyl-3-yl}methoxy)-2,3-dihydro-1-benzofuran-3-yl]acetic acid], the Relative activity value stood at 114%.

As for `Cc1cc(OCCCS(C)(=O)=O)cc(C)c1-c1cc(COc2ccc3c(c2)OC[C@H]3CC(=O)O)ccc1COc1ccccc1` [Example 32, [(3S)-6-({2′,6′-dimethyl-4′-[3-(methylsulfonyl)propoxy]-6-(phenoxymethyl)biphenyl-3-yl}methoxy)-2,3-dihydro-1-benzofuran-3-yl]acetic acid], the activation at 1 µM stood at 104%. Same read-out and setting: then `CCc1cc(OCCCS(C)(=O)=O)cc(CC)c1-c1cccc(COc2ccc3c(c2)OC[C@H]3CC(=O)O)c1` [Example 26, [(3S)-6-({2′,6′-diethyl-4′-[3-(methylsulfonyl)propoxy]biphenyl-3-yl}methoxy)-2,3-dihydro-1-benzofuran-3-yl]acetic acid], with 101%; and `Cc1cc(OCCCS(C)(=O)=O)cc(C)c1-c1cc(COc2ccc3c(c2)OC[C@H]3CC(=O)O)ccc1Oc1ccccc1` [Example 30, [(3S)-6-({2′,6′-dimethyl-4′-[3-(methylsulfonyl)propoxy]-6-phenoxybiphenyl-3-yl}methoxy)-2,3-dihydro-1-benzofuran-3-yl]acetic acid 0.5 calcium salt], with 108%.

Still in this test, the particulars now being: each compound at 1 μM; relative to activity of 10 μM γ-linolenic acid = 100%; CHO cell line stably expressing human-derived GPR40; FLIPR for Examples 2, 6, 8, 10, 11, 13, Cell Lux for Examples 19-34; hydrate.
With `Cc1cc(OCCCS(C)(=O)=O)cc(C)c1-c1cccc(COc2ccc3c(c2)OC[C@H]3CC(=O)O)c1` [Example 20, [(3S)-6-({2′,6′-dimethyl-4′-[3-(methylsulfonyl)propoxy]biphenyl-3-yl}methoxy)-2,3-dihydro-1-benzofuran-3-yl]acetic acid 0.5 hydrate], the Relative activity value amounted to 118%.

The test is the same for the next values; noted with them: reference agonist at 10 μM, its activity set as 100%; CHO cell line stably expressing human-derived GPR40.
`CCCCC/C=C\C/C=C\C/C=C\CCCCC(=O)O` [γ-linoleic acid, γ-linolenic acid, reference compound]: the Relative activity value came to 100%.

Values taken from patent US8598226B2, “Fused cyclic compounds” (Takeda Pharmaceutical Company Limited, priority 2006, dated 2013).
